Columns and labels:
KRAS G12D = KRAS G12D (Homo sapiens, UniProt P01116, G12D); experiment: SOS-catalyzed nucleotide exchange assay, KRAS G12D (Procedure A); type: biochemical; conditions: guanine nucleotide exchange (GNE)
Source text: (§1) Procedure for SOS-Catalyzed Nucleotide Exchange Assay for KRAS-WT, G12C/D/V, G13D, HRAS, and NRAS (Procedure A)
(§2) Recombinant KRAS-G12C protein used in this assay has an additional triple mutation (C51S/C80L/C118S). Whereas KRAS-WT, G12D/V, G13D, HRAS and NRAS are in context of their WT protein sequence background. Specifically, the SOS-catalyzed nucleotide exchange assay utilizes a preformed TR-FRET complex containing a specific biotinylated RAS protein (KRAS-WT, G12C/V/D, G13D, HRAS, NRAS; described above) with Bodipy-GDP, and Terbium-streptavidin. Compounds are preincubated with this complex for 60 minutes. Subsequently, recombinant human SOS protein and unlabeled GTP are added to initiate the exchange reaction. Small molecule inhibitors stabilize the Bodipy-GDP complex whereas the untreated protein rapidly exchanges Bodipy-GDP for unlabeled GTP resulting in reduced TR-FRET signal.
(§3) To assemble the preformed TR-FRET complexes, each biotinylated RAS protein is diluted to 2 μM in an EDTA Buffer (20 mM HEPES pH 7.5, 50 mM sodium chloride, 10 mM EDTA, and 0.01% Tween) and incubated at room temperature for one hour. This mixture is then further diluted to 90 nM in an Assay Buffer (20 mM HEPES pH 7.5, 150 mM sodium chloride, 10 mM magnesium chloride, and 0.005% Tween) containing 15 nM of Terbium-Streptavidin (Invitrogen, catalog #PV3577) and 900 nM of Bodipy-GDP (Invitrogen, catalog #G22360) and incubated at room temperature for six hours. It should be noted that this preformed TR-FRET complex for each of the RAS protein were made ahead of time, aliquoted and stored at −80° C. until the day of the experiment.
(§4) Each test compound (10 mM stock in DMSO) is diluted in DMSO to make a final-10-point, 3-fold dilution and is acoustically dispensed into a 384-well assay plate (Corning, catalog #3820) using an Echo 550 (Labcyte). Each well of the assay plate receives 3 μL of a specific 3×RAS preformed TR-FRET complex and 3 μL of Assay Buffer and is incubated at room temperature for 60 minutes (preincubation time). Each well then receives 3 μL of 3× recombinant human SOS protein and GTP (Sigma, G8877) in Assay Buffer and is incubated at room temperature for 30 minutes (G13D), 60 minutes (KRAS WT/G12C/D, H/NRAS) or 90 minutes for G12V. The final reaction in each well of 9 μL consists of 3 mM GTP, specific Ras and SOS proteins in the following concentrations: KRAS-G12C/SOS=3 nM/40 nM, KRAS-WT and G12D/SOS=1 nM/40 nM, KRAS-G12V/SOS=1.25 nM/160 nM, KRAS-G13D/SOS=1.25 nM/0 nM, HRAS and NRAS=1.25 nM/40 nM.
(§5) The time-resolved fluorescence resonance energy transfer (TR-FRET) signal is measured on an Envision (PerkinElmer) plate reader: Excitation filter=340 nm; emission1=495 nm; emission2=520 nm; dichroic mirror=D400/D505; delay time=[…]. The signal of each well is determined as the ratio of the emission at 520 nm to that at 495 nm. Percent effect of each well is determined after normalization to control wells containing DMSO (no effect) or a saturating concentration of inhibitor (max effect). The apparent effect as a function of compound concentration is fit to a four-parameter logistic equation.
(§6) For Example No. 14, nucleotide exchange assays for KRAS G12D, WT, G12C, and G12V were performed according to Procedure B. All the other compounds were tested according to Procedure A.

KRAS WT = KRAS WT (Homo sapiens, UniProt P01116); experiment: SOS-catalyzed nucleotide exchange assay, KRAS WT (Procedure A); type: biochemical; conditions: GNE
KRAS WT, sequence (P01116 with tags, fused parts or gaps isoform P01116-2): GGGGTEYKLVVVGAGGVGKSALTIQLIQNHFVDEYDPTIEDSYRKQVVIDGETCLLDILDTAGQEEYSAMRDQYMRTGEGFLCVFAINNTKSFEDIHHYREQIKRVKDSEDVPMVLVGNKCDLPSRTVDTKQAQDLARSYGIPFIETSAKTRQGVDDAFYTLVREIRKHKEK
Source text: as §1, §2, §3, §4, §5, §6

KRAS G12V = KRAS G12V (Homo sapiens, UniProt P01116, G12V); experiment: SOS-catalyzed nucleotide exchange assay, KRAS G12V (Procedure A); type: biochemical; conditions: GNE
KRAS G12V, sequence (P01116 with tags, fused parts or gaps isoform P01116-2 G12V): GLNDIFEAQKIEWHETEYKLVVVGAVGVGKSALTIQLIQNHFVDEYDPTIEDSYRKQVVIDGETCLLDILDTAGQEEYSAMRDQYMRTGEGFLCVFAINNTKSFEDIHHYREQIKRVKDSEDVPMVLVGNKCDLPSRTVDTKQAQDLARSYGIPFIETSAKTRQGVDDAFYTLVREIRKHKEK
Source text: as §1, §2, §3, §4, §5, §6

AsPC-1 cells = target: T1, AsPC-1 cells (Homo sapiens, UniProt P01116, G12D); experiment: Cellular phospho-ERK assay, AsPC-1 cells (KRAS G12D); type: cell-based; conditions: 2 hours, read-out: AsPC1 pERK IC50
T1 construct: p-ERK/total ERK AlphaSureFire read-out
T1 sequence (P01116 1-188 isoform P01116-2 G12D): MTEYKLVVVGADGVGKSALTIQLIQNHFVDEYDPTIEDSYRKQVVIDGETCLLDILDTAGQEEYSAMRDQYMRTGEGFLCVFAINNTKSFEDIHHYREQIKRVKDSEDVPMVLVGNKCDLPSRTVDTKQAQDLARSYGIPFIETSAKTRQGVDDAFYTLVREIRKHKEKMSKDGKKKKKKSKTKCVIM
Description: Procedure for Cellular Phospho-ERK Assay in KRAS Wild Type and Mutant (G12D, G12V) Cell Lines
PANC08.13 cells (ATCC® CRL-2551™), containing homozygous KRAS-G12D activating mutation, were cultured in growth medium made of RPMI1640-GlutaMAX™-I (ThermoFisher Scientific 61870) containing 15% heat inactivated fetal bovine serum (ThermoFisher Scientific 10091148)). AsPC-1 cells (ATCC® CRL-1682™), containing homozygous KRAS-G12D activating mutation, were cultured in T150 flask in growth medium (RPMI medium 1640-GlutaMAX™-I (ThermoFisher Scientific 61870) containing 10% fetal bovine serum (ThermoFisher Scientific 10091148)).
Cells for the assay were harvested in growth medium after TrypLE (ThermoFisher scientific 12604021) digestion and were seeded in a 384-well collagen coated cell culture plate (Corning 356702) at a density of 10,000-15,000 cells/20 μL/well, and incubated at 37° C., 5% CO2 overnight. The compound (with 10 mM stock concentration) dose-response titrations were prepared [30 μM final ERK detection assay concentration and 1:3 dilutions, 10-point dose response] and appropriate amounts (270 nL) of test compounds were dispensed in a 384-well intermediate plate using an Echo 550 liquid handler. 30 μL/well of RPMI medium 1640-GlutaMAX™-I was added to the intermediate plate and the contents of the intermediate plate (10 μL/well) were then transferred to the 384-well collagen coated cell culture plate, which was incubated at 37° C., 5% CO2 for 2 hours. After removal of medium from the collagen coated cell culture plate, cells were lysed in lysis buffer from Alpha SureFire® Ultra™ Multiplex p-ERK and total ERK assay kit (PerkinElmer MPSU-PTERK) containing Halt™ Protease and Phosphatase inhibitor cocktail (ThermoFisher Scientific 78446) at room temperature with constant shaking at 300 rpm for 30 minutes. The cell lysates were then transferred to an OptiPlate-384 plate (PerkinElmer 6005620), and the phosphorylation of ERK (p-ERK) and total ERK levels were detected by Alpha SureFire® Ultra™ Multiplex p-EEK kit and total ERK assay kit (PerkinElmer MPSU-PTERK) following the manufacturer's protocol. Assay plates were read on a EnVision Multimode Plate Reader (PerkinElmer), and the ratio of p-ERK vs. total ERK in each well was used as the final readout. Dose response curves were analyzed using a 4-parameter logistic model to calculate IC50 values using Spotfire software.

KRAS G12D, sequence (P01116 with tags, fused parts or gaps isoform P01116-2 G12D): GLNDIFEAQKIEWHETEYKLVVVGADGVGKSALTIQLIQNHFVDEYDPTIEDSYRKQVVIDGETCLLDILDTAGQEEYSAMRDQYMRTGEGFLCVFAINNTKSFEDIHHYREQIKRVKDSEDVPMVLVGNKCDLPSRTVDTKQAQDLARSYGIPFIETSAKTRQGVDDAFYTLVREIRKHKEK

Row | SMILES | IC50 (KRAS G12D) | IC50 (KRAS WT) | IC50 (KRAS G12V) | IC50 (AsPC-1 cells)
1 | C#Cc1c(F)ccc2cc3[nH]ncc3c(-c3nccc4c3sc3nc(OC[C@@]56CCC7(CC7)N5C[C@H](F)C6)nc(N5C[C@H]6CC[C@@H](C5)N6)c34)c12 [Ex-97, 4-((1R,5S)-3,8-diazabicyclo[3.2.1]octan-3-yl)-8-(5-ethynyl-6-fluoro-1H-benzo[f]indazol-4-yl)-2-(((6′R,7a′S)-6′-fluorotetrahydrospiro[cy-clopropane-1,3′-pyrrolizin]-7a′(5'H)-yl)methoxy)pyrido[4′, 3′:4,5]thieno[2,3-d]pyrimidine] | 0.003 µM | 1.29 µM | 3.13 µM | 0.21 µM
2 | Cc1cc2[nH]ncc2c(-c2nccc3c2sc2nc(OCC4CCCN(S(C)(=O)=O)C4)nc(N4C[C@H]5CC[C@@H](C4)N5)c23)c1C(F)(F)F (stereo partly drawn) [Ex-50, 4-((1R,5S)-3,8-diazabicyclo[3.2.1]octan-3-yl)-8-(6-methyl-5-(trifluoromethyl)-1H-indazol-4-yl)-2-((1-(methylsulfonyl)piperidin-3-yl)methoxy)pyrido[4′,3′:4,5]thi-eno[2,3-d]pyrimidine] | 2.38 µM | – | – | > 30 µM
3 | Cc1cc2[nH]ncc2c(-c2nccc3c2sc2nc(OCC4COC(C)(C)CO4)nc(N4C[C@H]5CC[C@@H](C4)N5)c23)c1C(F)(F)F (stereo partly drawn) [Ex-48, 4-((1R,5S)-3,8-diazabicyclo[3.2.1]octan-3-yl)-2-((5,5-dimethy1-1,4-dioxan-2-yl)methoxy)-8-(6-methy1-5-(trifluoromethyl)-1H-indazol-4-yl)pyrido[4′,3′:4,5]thieno[2,3-d]pyrimidine] | 3.35 µM | – | – | 14.9 µM
4 | Cc1cc2[nH]ncc2c(-c2nccc3c2sc2nc(OCC4(C#N)CCOC4)nc(N4C[C@H]5CC[C@@H](C4)N5)c23)c1C(F)(F)F (stereo partly drawn) [Ex-49, 3-(((4-((1R,5S)-3,8-diazabicyclo[3.2.1]octan-3-yl)-8-(6-methyl-5-(trifluoromethyl)-1H-indazol-4-yl)pyrido[4′,3′:4,5]thieno[2,3-d]pyrimidin-2-yl)oxy)methyl)tetrahydrofuran-3-carbonitrile] | 1.46 µM | – | – | 5.98 µM
5 | Cc1cc2[nH]ncc2c(-c2nccc3c2sc2nc(OCC45COC(C4)C5)nc(N4C[C@H]5CC[C@@H](C4)N5)c23)c1C(F)(F)F [Ex-43, 2-((2-oxabicyclo[2.1.1]hexan-4-yl)methoxy)-4-((1R,5S)-3,8-diazabicyclo[3.2.1]octan-3-yl)-8-(6-methyl-5-(trifluoromethyl)-1H-indazol-4-yl)pyrido[4′,3′:4,5]thieno[2,3-d]pyrimidine] | 2.18 µM | – | – | 6.83 µM
6 | Cc1cc2[nH]ncc2c(-c2nccc3c2sc2nc(OC[C@H]4C[C@H](C#N)C4)nc(N4C[C@H]5CC[C@@H](C4)N5)c23)c1C(F)(F)F [Ex-45, (1R,3r)-3-(((4-((1R,5S)-3,8-diazabicyclo[3.2.1]octan-3-yl)-8-(6-methyl-5-(trifluoromethyl)-1H-indazol-4-yl)pyrido[4′,3′:4,5]thieno[2,3-d]pyrimidin-2-yl)oxy)methyl)cyclobutane-1-carbonitrile] | 3.01 µM | – | – | 4.87 µM
7 | COC1(COc2nc(N3C[C@H]4CC[C@@H](C3)N4)c3c(n2)sc2c(-c4c(C(F)(F)F)c(C)cc5[nH]ncc45)nccc23)CCOC1 (stereo partly drawn) [Ex-44, 4-((1R,5S)-3,8-diazabicyclo[3.2.1]octan-3-yl)-2-((3-methoxytetrahydrofuran-3-yl)methoxy)-8-(6-methyl-5-(trifluoromethyl)-1H-indazol-4-yl)pyrido[4′,3′:4,5]thieno[2,3-d]pyrimidine] | 2.64 µM | – | – | 4.67 µM

Continued, values first:

Row | IC50 (KRAS G12D) | IC50 (KRAS WT) | IC50 (KRAS G12V) | IC50 (AsPC-1 cells) | SMILES
8 | 4.64 µM | – | – | > 30 µM | Cc1cc2[nH]ncc2c(-c2nccc3c2sc2nc(OCCC4CCS(=O)(=O)CC4)nc(N4C[C@H]5CC[C@@H](C4)N5)c23)c1C(F)(F)F [Ex-41, 4-(2-((4-((1R,5S)-3,8-diazabicyclo[3.2.1]octan-3-yl)-8-(6-methyl-5-(trifluoromethyl)-1H-indazol-4-yl)pyrido[4′,3′:4,5]thieno[2,3-d]pyrimidin-2-yl)oxy)ethyl)tetrahydro-2H-thiopyran 1,1-dioxide]
9 | 3.1 µM | – | – | 6.52 µM | CCOC1(COc2nc(N3C[C@H]4CC[C@@H](C3)N4)c3c(n2)sc2c(-c4c(C(F)(F)F)c(C)cc5[nH]ncc45)nccc23)CCOC1 (stereo partly drawn) [Ex-42, 4-((1R,5S)-3,8-diazabicyclo[3.2.1]octan-3-yl)-2-((3-ethoxytetrahydrofuran-3-yl)methoxy)-8-(6-methyl-5-(trifluoromethyl)-1H-indazol-4-yl)pyrido[4′,3′:4,5]thieno[2,3-d]pyrimidine]
10 | 2.81 µM | – | – | 12.6 µM | Cc1cc2[nH]ncc2c(-c2nccc3c2sc2nc(OCC4(C)CCCO4)nc(N4C[C@H]5CC[C@@H](C4)N5)c23)c1C(F)(F)F (stereo partly drawn) [Ex-46, 4-((1R,5S)-3,8-diazabicyclo[3.2.1]octan-3-yl)-8-(6-methy1-5-(trifluoromethyl)-1H-indazol-4-yl)-2-((2-methyltetrahydrofuran-2-yl)methoxy)pyrido[4′,3′:4,5]thi-eno[2,3-d]pyrimidine]
11 | 3.13 µM | – | – | 11.3 µM | Cc1cc2[nH]ncc2c(-c2nccc3c2sc2nc(OC[C@H]4CCCO4)nc(N4C[C@H]5CC[C@@H](C4)N5)c23)c1C(F)(F)F [Ex-47, 4-((1R,5S)-3,8-diazabicyclo[3.2.1]octan-3-yl)-8-(6-methyl-5-(trifluoromethyl)-1H-indazol-4-yl)-2-(((R)-tetrahydrofuran-2-yl)methoxy)pyrido[4′,3′:4,5]thi-eno[2,3-d]pyrimidine]

Reference: US20260347372A1, “SMALL MOLECULE INHIBITORS OF KRAS G12D MUTANT” (MERCK SHARP & DOHME LLC, priority 2023, published 2026)
